Patent US20150342954A1, “2-BENZYL, 3-(PYRIMIDIN-2-YL) SUBSTITUTED PYRAZOLES USEFUL AS SGC STIMULATORS” (IRONWOOD PHARMACEUTICALS, INC., priority 2011, published 2015)
Read-outs that look alike come from different tables or passages of the source.

Biological target: T1, soluble guanylate cyclase (sGC) (Homo sapiens, UniProt Q02108+Q02153)
T1 construct: endogenously expressing soluble guanylate cyclase (sGC); endogenous in cells; host or cells: HEK293
T1 sequence (Q02153 1-619): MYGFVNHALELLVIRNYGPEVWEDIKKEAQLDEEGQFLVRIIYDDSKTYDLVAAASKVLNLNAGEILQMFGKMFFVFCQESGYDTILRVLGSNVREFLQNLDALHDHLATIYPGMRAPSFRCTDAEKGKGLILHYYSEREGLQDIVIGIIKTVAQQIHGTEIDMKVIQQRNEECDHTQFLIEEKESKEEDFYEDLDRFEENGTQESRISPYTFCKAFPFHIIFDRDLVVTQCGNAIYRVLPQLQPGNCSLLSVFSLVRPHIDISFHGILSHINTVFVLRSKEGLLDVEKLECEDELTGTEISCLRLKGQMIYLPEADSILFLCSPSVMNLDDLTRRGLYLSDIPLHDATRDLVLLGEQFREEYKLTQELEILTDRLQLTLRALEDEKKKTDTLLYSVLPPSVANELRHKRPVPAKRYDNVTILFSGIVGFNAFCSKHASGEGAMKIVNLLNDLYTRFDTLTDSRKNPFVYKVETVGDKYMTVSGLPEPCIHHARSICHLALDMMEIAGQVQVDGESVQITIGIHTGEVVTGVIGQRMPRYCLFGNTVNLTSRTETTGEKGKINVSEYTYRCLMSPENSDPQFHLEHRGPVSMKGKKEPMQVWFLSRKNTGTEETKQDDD
T1 sequence (Q02108 1-690): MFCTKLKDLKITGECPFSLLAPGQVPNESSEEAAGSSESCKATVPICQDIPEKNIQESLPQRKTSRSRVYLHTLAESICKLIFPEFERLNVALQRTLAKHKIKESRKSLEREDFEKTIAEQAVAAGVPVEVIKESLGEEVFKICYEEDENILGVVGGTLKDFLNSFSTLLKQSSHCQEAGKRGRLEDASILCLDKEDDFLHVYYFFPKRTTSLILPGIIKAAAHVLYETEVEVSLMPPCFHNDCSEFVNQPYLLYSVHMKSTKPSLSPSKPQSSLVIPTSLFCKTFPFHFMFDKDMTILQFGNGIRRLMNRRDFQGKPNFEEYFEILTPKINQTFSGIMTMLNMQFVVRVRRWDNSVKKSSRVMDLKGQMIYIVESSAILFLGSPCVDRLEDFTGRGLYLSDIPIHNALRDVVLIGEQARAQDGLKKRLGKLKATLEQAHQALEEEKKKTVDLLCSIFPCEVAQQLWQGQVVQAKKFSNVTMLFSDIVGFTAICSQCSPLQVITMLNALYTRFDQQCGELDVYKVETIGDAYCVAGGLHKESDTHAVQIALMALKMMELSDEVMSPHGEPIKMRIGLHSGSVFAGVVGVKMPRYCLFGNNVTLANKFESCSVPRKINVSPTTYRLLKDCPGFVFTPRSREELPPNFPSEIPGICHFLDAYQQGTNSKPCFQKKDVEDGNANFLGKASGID
Assay: sGC-HEK-cGMP assay (run with SNP incubation)
Format: cell-based
Settings: for Emax: 10 μM SNP, 100% = 30 μM BAY 41-2272 with 10 μM SNP, read-out: HEK assay Emax-unconstrained (Percent); for HEK MEC-10: concentration that would elicit 10% of the Emax in the presence of 10 μM SNP; for EC50: in the presence of 10 μM SNP
Experimental: Biological Activity Measurement by the sGC-HEK-cGMP Assay
(Assay Run with SNP Incubation)
Human embryonic kidney cells (HEK293), endogenously expressing soluble guanylate cyclase (sGC), were used to evaluate the activity of test compounds. Compounds stimulating the sGC receptor should cause an increase in the intracellular concentration of cGMP. HEK 293 cells were seeded in Dulbecco's Modification of Eagle's Medium supplemented with fetal bovine serum (10% final) and L-glutamine (2 mM final) in a 2004 volume at a density of 1×10^5 cells/well in a poly-D-lysine coated 96 well flat bottom plate and grown overnight at 37° C. Medium was aspirated and cells were washed with 1× Hank's Buffered Saline Salt Solution (2004). Cells were then incubated for 15 minutes at 37° C. with 0.5 mM 3-isobutyl-1-methylxanthine (2004). Test article and sodium nitroprusside were then added to the assay mixture (24 each) and incubated at 37° C. for 10 minutes. After the 10 minute incubation, the assay mixture was aspirated and 0.1M HCl (2004) was added to the cells. The plate was incubated at 4° C. for 30 minutes in the 0.1M HCl to stop the reaction and lysed the cells. The plates were then centrifuged at 1,200 g for 5 minutes at room temperature. Supernatants were collected and transferred to a new flat bottom 96 well plate for analysis. Vehicle controls were carried out using DMSO (1%). A known sGC stimulator, BAY 41-2272, was used as the positive control. Samples were diluted with an equal volume of 1 M Ammonium Acetate (pH 7) to neutralize samples for better chromatography. A 2×cGMP standard curve was prepared in 0.1 M HCl and then diluted with an equal volume of 1 M Ammonium Acetate, with the following final concentrations in nM: 1024, 512, 256, 128, 64, 32, 16, 8, 4, 2, 1.cGMP concentrations were determined from each sample using the LC/MS conditions (Table 2 below) and calculated standard curve. EC50 values were calculated from concentration-response curves generated with GraphPad Prism Software.

[1] = Table 3A, top of concentration-response curve not fitted to 100%
[2] = Table 3D, read-out: HEK assay EC50
[3] = top of concentration-response curve not fitted to 100%, Table 3D, read-out: HEK assay EC50-unconstrained
[4] = Table 3C, top of concentration-response curve not fitted to 100%
[5] = Table 3F, read-out: HEK assay EC50
[6] = top of concentration-response curve not fitted to 100%, Table 3F, read-out: HEK assay EC50-unconstrained

Emax [1] [%] | HEK MEC-10 (Table 3D) | EC50 [2] [µM] | EC50 [3] [µM] | Emax [4] [%] | HEK MEC-10 (Table 3F) | EC50 [5] [µM] | EC50 [6] [µM] | Emax (Table 3B, top of concentration-response curve not fitted to 100%) [%] | EC50 (top of concentration-response curve not fitted to 100%, Table 3E, read-out: HEK assay EC50-unconstrained) [µM] | SMILES
60 to 80 | C (0.1 to <1 μM) | 20 to 40 | 10 to 50 |  |  |  |  |  |  | Oc1nc(-c2cc(-c3ccon3)n(Cc3ccccc3F)n2)ncc1Sc1ccccn1 [Compound 18, 2-(1-(2-fluorobenzyl)-5-(isoxazol-3-yl)-1H-pyrazol-3-yl)-5-(pyridin-2-ylthio)pyrimidin-4-ol]
40 to 60 | C (0.1 to <1 μM) | 20 to 40 | 1 to 5 |  |  |  |  |  |  | Oc1nc(-c2cc(-c3ncco3)n(Cc3ccccc3F)n2)ncc1Sc1ccccc1 [Compound 20, 2-(1-(2-fluorobenzyl)-5-(oxazol-2-yl)-1H-pyrazol-3-yl)-5-(phenylthio)pyrimidin-4-ol]
60 to 80 | C (0.1 to <1 μM) | < 20 | 1 to 5 |  |  |  |  |  |  | Oc1nc(-c2cc(-c3ccon3)n(Cc3ccccc3F)n2)ncc1Sc1ccc(F)cc1 [Compound 4, 2-(1-(2-fluorobenzyl)-5-(isoxazol-3-yl)-1H-pyrazol-3-yl)-5-(4-fluorophenylthio)pyrimidin-4-ol]
 |  | 1200 to 7000 |  |  |  |  |  |  |  | Oc1nc(-c2cc(-c3ccon3)n(Cc3ccccc3F)n2)ncc1Sc1ccc(C(F)(F)F)cc1 [Compound 17, 2-(1-(2-fluorobenzyl)-5-(isoxazol-3-yl)-1H-pyrazol-3-yl)-5-(4-(trifluoromethyl)phenylthio)pyrimidin-4-ol]
80 to 100 | B (0.01 to <0.1 μM) | < 20 | 0.01 to 0.5 |  |  |  |  |  |  | Nc1nc(-c2cc(-c3ccon3)n(Cc3ccccc3F)n2)ncc1NC(=O)C1(c2ccc(F)cc2)CC1 [Compound 13]
60 to 80 | D (1 to <10 μM) | < 20 | 1 to 5 |  |  |  |  |  |  | Fc1ccccc1Cn1nc(-c2ncc(F)c(Cl)n2)cc1-c1ccon1 [Compound 30, 3-(3-(4-chloro-5-fluoropyrimidin-2-yl)-1-(2-fluorobenzyl)-1H-pyrazol-5-yl)isoxazole]
 |  |  |  | 80 to 100 | A (0.001 to <0.01 μM) | < 20 | 0.01 to 0.5 |  |  | Nc1nc(-c2cc(-c3ccon3)n(Cc3cccc(F)c3F)n2)ncc1NC(=O)c1ccc[nH]1 [Compound 103]
 |  |  |  | 80 to 100 | A (0.001 to <0.01 μM) | < 20 | 0.01 to 0.5 |  |  | Nc1nc(-c2cc(-c3ccon3)n(Cc3cccc(F)c3F)n2)ncc1NC(=O)c1ccc(C(F)(F)F)cc1 [Compound 101]
≥ 120 | D (1 to <10 μM) | < 20 | 10 to 50 |  |  |  |  |  |  | O=c1[nH]c(-c2nn(Cc3ccccc3F)c(-c3ccon3)c2F)ncc1F [Compound 3]
 |  |  |  | 20 to 40 | D (1 to <10 μM) | 40 to 60 | 1 to 5 |  |  | N#Cc1nc(-c2cc(-c3ccon3)n(Cc3ccccc3F)n2)ncc1F [Compound 115]
 |  |  |  | 60 to 80 | C (0.1 to <1 μM) | < 20 | 1 to 5 |  |  | CN(C)Cc1ccc(C(=O)Nc2cnc(-c3cc(-c4ccon4)n(Cc4cccc(F)c4F)n3)nc2N)cc1 [Compound 102]
40 to 60 | D (1 to <10 μM) | < 20 | 0.01 to 0.5 |  |  |  |  |  |  | N#CC1(C(=O)Nc2cnc(-c3cc(-c4ccon4)n(Cc4cccc(F)c4F)n3)nc2N)CC1 [Compound 36]
60 to 80 | B (0.01 to <0.1 μM) | < 20 | 0.01 to 0.5 |  |  |  |  |  |  | Oc1nc(-c2cc(-c3ncco3)n(Cc3ccccc3F)n2)ncc1Sc1ccccn1 [Compound 7, 2-(1-(2-fluorobenzyl)-5-(oxazol-2-yl)-1H-pyrazol-3-yl)-5-(pyridin-2-ylthio)pyrimidin-4-ol]
 |  |  |  | 20 to 40 | D (1 to <10 μM) | 60 to 100 |  |  |  | COc1nc(-c2cc(-c3ccon3)n(Cc3ccccc3F)n2)nc(Cl)c1F [Compound 116]
 |  |  |  | 60 to 80 | B (0.01 to <0.1 μM) | < 20 | 0.01 to 0.5 |  |  | Nc1nc(-c2cc(-c3ccon3)n(Cc3ccccc3F)n2)ncc1NC(=O)C(Cl)(Cl)Cl [Compound 98]
 |  | 1200 to 7000 |  |  |  |  |  |  |  | Fc1ccccc1Cn1nc(-c2ncc(Br)c(OCc3ccccc3)n2)cc1-c1ccon1 [Compound 50]
 |  |  |  |  |  |  |  | 40 to 60 | 0.01 to 0.5 | Oc1nc(-c2cc(-c3ccco3)n(Cc3ccccc3F)n2)ncc1F [Compound 90]
 |  |  |  | 40 to 60 | C (0.1 to <1 μM) | < 20 | 1 to 5 |  |  | Nc1nc(-c2cc(-c3ccon3)n(Cc3cccc(F)c3F)n2)ncc1NC(=O)C12CC3CC(CC(O)(C3)C1)C2 [Compound 107]
60 to 80 | B (0.01 to <0.1 μM) | < 20 | 0.01 to 0.5 |  |  |  |  |  |  | Nc1nc(-c2cc(-c3ccon3)n(Cc3ccccc3F)n2)ncc1NC(=O)C1(c2cccc(F)c2)CC1 [Compound 11]
20 to 40 | D (1 to <10 μM) | 40 to 60 | 1 to 5 |  |  |  |  |  |  | Nc1ccnc(-c2cc(-c3ccon3)n(Cc3c(F)ccc(F)c3F)n2)n1 [Compound 15]

SMILES | Emax [1] [%] | HEK MEC-10 (Table 3D) | EC50 [2] [µM] | EC50 [3] [µM] | Emax [4] [%] | HEK MEC-10 (Table 3F) | EC50 [5] [µM] | EC50 [6] [µM] | Emax (Table 3B, top of concentration-response curve not fitted to 100%) [%] | EC50 (top of concentration-response curve not fitted to 100%, Table 3E, read-out: HEK assay EC50-unconstrained) [µM]
CN(Cc1ccccc1)S(=O)(=O)c1cnc(-c2cc(-c3ccon3)n(Cc3ccccc3F)n2)[nH]c1=O [Compound 16] | 60 to 80 | C (0.1 to <1 μM) | < 20 | 0.5 to 1 |  |  |  |  |  | 
O=c1[nH]c(-c2cc(-c3ccon3)n(Cc3ccccc3F)n2)ncc1S(=O)(=O)N1CCCC1 [Compound 21] | 60 to 80 | C (0.1 to <1 μM) | < 20 | 0.5 to 1 |  |  |  |  |  | 
CN(C)S(=O)(=O)c1cnc(-c2cc(-c3ccon3)n(Cc3ccccc3F)n2)[nH]c1=O [Compound 22] | 80 to 100 | D (1 to <10 μM) | < 20 | 1 to 5 |  |  |  |  |  | 
CN(C1CC1)S(=O)(=O)c1cnc(-c2cc(-c3ccon3)n(Cc3ccccc3F)n2)[nH]c1=O [Compound 14] | 40 to 60 | B (0.01 to <0.1 μM) | < 20 | 0.01 to 0.5 |  |  |  |  |  | 
